# Laboratory results reported in PMC11845477, “Exploring the principles behind antibiotics with limited resistance” (Nature Communications, 2025).
# Tests used:
# [1] = test system: K. pneumoniae ATCC 10031 (SEN) and K. pneumoniae ATCC 700603 (MDR); test: microbe, parasite or virus in culture; format: cell-based, Klebsiella pneumoniae; conditions: for MIC: Klebsiella pneumoniae, across three biological replicates
# Experimental: This study focused on multiple bacterial strains, as follows. For the FoR and ALE experiments, 2 strains per species were chosen: E. coli ATCC 25922, K. pneumoniae ATCC 10031, A. baumannii ATCC 17978, and P. aeruginosa ATCC BAA-3107 as sensitive (SEN) strains, and E. coli NCTC13846, K. pneumoniae ATCC 700603, A. baumannii ATCC BAA-1605 and P. aeruginosa LESB58 as multi-drug resistant (MDR) strains. Functional metagenomic screens were performed with E. coli ATCC 25922 and K. pneumoniae ATCC 10031 strains. To determine the dose-kill properties of the different antibiotics, an E. coli strain (ATCC 25922) expressing a yellow fluorescent protein (pZS2R, YFP, CHL^R) and a red fluorescent protein (pZS2R, mCherry, CHL^R) was used.
# Unless otherwise indicated, cation-adjusted Mueller-Hinton Broth 2 (MHB, Millipore) medium was used throughout the study, except for SCH79797 (SCH).
# A robotic liquid handling system was used to automatically prepare a 11 to 16-step serial dilution in 384-well microtiter plates (Greiner). A final concentration of 5 × 10^5 bacterial cells per mL were inoculated into each well containing 60 µL MHB medium. Bacterial cultures were incubated at 37 °C with continuous shaking (Infors shaker, 900 rpm with 3 mm throw) for 18 hours (2 replicates from each). Cell growth was monitored by measuring the optical density (OD600 values, using Biotek Synergy microplate reader). MIC was defined as the antibiotic concentration of complete growth inhibition (i.e., OD600 < 0.05). Relative MIC was calculated as follows:1 relativeMIC=MICevolved/MICancestor
# E. coli BW25113-ΔacrB = test: AcrAB-TolC efflux deficiency screen, relative MIC; format: cell-based, Escherichia coli; conditions: ΔacrB vs wild-type
# Experimental: Fig. 6 The impact of AcrAB-TolC activity on antibiotic susceptibility. E. coli strains with AcrAB-TolC depletion (BW25113-ΔacrB) and overexpression (BW25113: pUCacrAB) were treated with various antibiotics, and the level of resistance was determined as minimum inhibitory concentration (MIC) relative to a wild-type strain, presented on a logarithmic scale (log2). Each bar represents the mean resistance level (susceptibility, i.e., level of resistance < 0; and resistance, i.e., level of resistance > 0) to antibiotics induced by acrAB overexpression (blue bars; E. coli with a multicopy plasmid of the acrAB genes (pUCacrAB)) and acrB deletion (red bars; mutant E. coli with acrB gene deletion (ΔacrB)) compared to the wild-type. Data are presented as mean values of 3 biological replicates ± SD. […] Detailed information on antibiotic and bacterial strain abbreviations is provided in Supplementary Data 1. Source data are provided as a Source Data file. For information on mode of action groups, refer to Table 1.
# For the efflux deficiency screen, the ΔacrB mutant of E. coli K12 BW25113[86] and its equivalent wild-type control strain with intact gene were utilized. In contrast, BW25113 carrying a multicopy acrAB plasmid (pUCacrAB)[87] and its control strain harboring an empty pUC118 plasmid were used to overexpress the acrAB efflux system. According to established protocols via P1 transduction, the suitable acrB deletion mutant (ΔacrB BW25113) was created, while the pUCacrAB plasmid was kindly provided by Kunihiko Nishino and Akihito Yamaguchi (Osaka University, Osaka, Japan). In a prior study, both strains were employed. Since the copy number of the plasmid carrying the efflux pump is controlled by native promoters, external induction is unnecessary.
# Antibiotic susceptibilities of these strains were evaluated using a modified version of the standard broth dilution method. In 96-well microtiter plates containing fresh MHB medium, or supplemented MS medium in case of SCH79797, ten-step serial dilutions of an antibiotic from a stock solution were made (2 wells per antibiotic concentration per strain). The two wells contained only supplemented media without any antibiotics […]. Strains were incubated overnight at 37 °C with continuous agitation. Additionally, plasmid containing strains were grown in the presence of 100 µg/mL ampicillin. The culture was diluted to yield a cell suspension with 5 ×10^5 cells/mL and then inoculated into the wells of the microtiter plate. To determine the medium’s background OD value, the first column of the 96-well plate contained solely MHB without inoculum. Prior to the measurement, the plates were incubated at 37 °C with continuous shaking at 900 rpm with 3 mm throw. OD600 values were determined in a microplate reader after 18 hours of incubation (Biotek Synergy 2). The minimum inhibitory concentration (MIC) was determined as the lowest concentration of antibiotic at which the OD600 values were less than 0.05 after subtracting the background value. The log2 of the relative MIC was computed using the following equation:2 log2relativeMICpUCacrAB=MICpUCacrAB/MICpUC118 3 log2relativeMICΔacrB=MICΔacrB/MICwt
# [2] = Klebsiella pneumoniae ATCC 10031 (KP-SEN), ancestor strain
# [3] = Klebsiella pneumoniae ATCC 10031 (KP-SEN), ancestor strain, sheet fig 2a
# [4] = Klebsiella pneumoniae ATCC 700603 (KP-MDR), ancestor strain
# [5] = Klebsiella pneumoniae ATCC 700603 (KP-MDR), ancestor strain, sheet fig 2a
# [6] = Klebsiella pneumoniae ATCC 10031 (KP-SEN)
# [7] = Klebsiella pneumoniae ATCC 700603 (KP-MDR)
# [8] = KP-SEN, Klebsiella pneumoniae ATCC 10031, ancestor strain
SMILES,"MIC of ancestor [1, 2] [µg/mL]","MIC of ancestor [1, 3] [µg/mL]","MIC of ancestor [1, 4] [µg/mL]","MIC of ancestor [1, 5] [µg/mL]","MIC [1, 6] [µg/mL]","MIC [1, 7] [µg/mL]",Relative MIC (log2) (E. coli BW25113-ΔacrB; replicate 1),Relative MIC (log2) (E. coli BW25113-ΔacrB; replicate 2),Relative MIC (log2) (E. coli BW25113-ΔacrB; replicate 3),"MIC of ancestor ([1]; K. pneumoniae ATCC 10031 (KP-SEN), ancestor strain) [µg/mL]","MIC of ancestor [1, 8] [µg/mL]","MIC of ancestor ([1]; KP-MDR, Klebsiella pneumoniae ATCC 700603, ancestor strain) [µg/mL]","MIC of ancestor ([1]; Klebsiella pneumoniae ATCC 10031 (KP-SEN), ancestor) [µg/mL]","MIC of ancestor ([1]; Klebsiella pneumoniae ATCC 700603 (KP-MDR), ancestor) [µg/mL]"
CN[C@@H]1[C@@H](O[C@H]2O[C@H](CO)[C@@H](N)[C@H](O)[C@H]2O)OC2C[C@@H](N)[C@@H](O[C@H]3[C@H](O)[C@@H](O)[C@H](N)C[C@@H]3N)OC2[C@@H]1O (some centres unmarked) [Apramycin],2,2,4,4,2,4,1,1,1,–,–,–,–,–
Nc1nc(-n2cc(C(=O)O)c(=O)c3cc(F)c(N4CC(O)C4)c(Cl)c32)c(F)cc1F [Delafloxacin],0.00195,0.00195,1,1,0.00195,1,-4,-4,-4,–,–,–,–,–
C[C@H]1c2cccc(O)c2C(=O)C2=C(O)[C@]3(O)C(=O)C(C(N)=O)=C(O)[C@@H](N(C)C)[C@@H]3[C@@H](O)[C@@H]21 [Doxycycline],0.25,0.25,–,–,0.25,32,-2.34,-2.34,-2.34,–,–,–,–,–
CN(C)[C@@H]1C(O)=C(C(N)=O)C(=O)[C@@]2(O)C(O)=C3C(=O)c4c(O)c(NC(=O)CN5CCCC5)cc(F)c4C[C@H]3C[C@@H]12 [Eravacycline],–,0.0312,4,4,0.0312,4,-2.34,-2.34,-2.34,0.0312,–,–,–,–
CNC(C)C1CCC(N)C(OC2C(N)CC(N)C(OC3OCC(C)(O)C(NC)C3O)C2O)O1 (centres unmarked) [Gentamicin],–,0.25,–,–,0.25,16,0,0,0,–,0.25,–,–,–
O=c1ccc2ncc(=O)n3c2n1C[C@H]3CN1CCC(NCc2cc3c(cn2)OCCC3)CC1 [Gepotidacin],–,0.125,–,–,0.125,16,-4,-4,-4,–,0.125,–,–,–
C[C@@H](O)[C@H]1C(=O)N2C(C(=O)O)=C(S[C@@H]3CN[C@H](C(=O)N(C)C)C3)[C@H](C)[C@H]12 [Meropenem],–,0.0312,–,0.0625,0.0312,0.0625,–,–,–,–,–,0.0625,–,–
COc1c(N2C[C@@H]3CCCN[C@@H]3C2)c(F)cc2c(=O)c(C(=O)O)cn(C3CC3)c12 [Moxifloxacin],–,0.00781,–,1,0.00781,1,–,–,–,–,–,–,0.00781,1
